This note sets out measurements from the NIST ThermoML archive (doi:10.1016/j.tca.2016.04.007).

The conditions of data set [1]: Crystal; DTA.
The nature of data set [2]: Molar enthalpy of transition or fusion. Conditions: Crystal; DSC.

± gives the expanded uncertainty stated by the source.

Consider `CCCCCCCCCCCCCCCCBr` [1-bromohexadecane], for which, in data set [1], the Normal melting temperature was 14.20 ± 3 °C. The “Molar enthalpy of transition or fusion” value in data set [2] turned out to be 10.9 ± 0.287 kcal/mol.

For the molecule `CCCCCCCCCCCCCCCCCCBr` [1-bromooctadecane], the Normal melting temperature in data set [1] was found to be 23.50 ± 3 °C. Besides, in data set [2], the “Molar enthalpy of transition or fusion” value was 12.9 ± 0.311 kcal/mol.
